Laboratory results as given in patent EP0881896B1, “SKIN TREATMENT WITH SALICYLIC ACID ESTERS AND RETINOIDS” (FD MANAGEMENT, INC., priority 1996, dated 1997).
Read-outs that look alike come from different tables or passages of the source.

System: sebocytes
Assay: In Vitro sebocyte Lipogenesis Assay (14-C acetate incorporation into lipid)
Type: cell-based, Human
Source text: Dermatologic disorders, chronoaging and environmental abuse all have some relationship to sebum production. The present example reports an in vitro analysis of sebum suppression by use of a combination of salicylate ester and retinoid.
Human sebaceous glands were isolated from the nose of a person and cultured using submerged tissue culture techniques (Bajor et al, J. Invest, Dermatol, 102:1994. P. 564). These sebocytes accumulate intracellular lipid droplets characteristic of mature human sebum.
Harvested and passaged sebocytes were added to each well of a 48 well tissue culture plate and incubated at 37°C in the presence of 7.5% CO2 for 14 days. The growth medium was changed three times per week. On the day of experimentation, the growth medium was removed and the sebocytes washed three times with phosphate buffered saline (PBS). Fresh PBS in 0.5 ml amount was added to each well and 10 microliters of active agent speculated to inhibit lipogenesis. Triplicate wells were utilized for each sample. […] The cultures were incubated at 37°C/7.5% CO2 for 30 minutes. Radioactive label was prepared by adding 100 ul of 14-C labelled acetic acid (Amersham, sodium salt, specific activity of 56 mCi/mmol) to 10 mL of 50 mM sodium acetate buffer. Then 50 ul was added to each well containing the sebocytes and active agents. The cultures were returned to the incubator for 4 hours. Thereafter the treatments and label were removed and the sebocytes rinsed three times with fresh PBS. Sebocytes were harvested and 10 microliters removed and set aside for protein assessment. The remaining samples containing the 14-C label were extracted and the label counted using a Beckman scintillation counter. Triplicates were performed for each sample.
For each 48 well tissue culture plate, 16 samples could be analyzed. Of these, 1 sample was reserved for PBS, 1 sample for DMSO, and 1 sample for phenol red leaving 13 remaining samples. When TDS (tridecyl salicylate) was analyzed in the presence of other compounds, an additional set of wells was used for measuring the effects of TDS alone. When multiple 48 well plates were used, TDS was included in each plate.

[1] = combination with tridecyl salicylate, conclusion from Tables VIII-X

Compound: CC1=C(/C=C/C(C)=C/C=C/C(C)=C/CO)C(C)(C)CCC1 [Retinol]
- activity with tridecyl salicylate (synergistic or additive) (similar trials with retinol instead of retinyl linoleate, retinol at very low levels): synergistic

Compound: CCCCC/C=C\C/C=C\CCCCCCCC(=O)OC/C=C(C)/C=C/C=C(C)/C=C/C1=C(C)CCCC1(C)C [Retinyl Linoleate, retinyl linoleate]
- inhibition at 10 µM (Homo sapiens, Table IX, Retinyl Linoleate 10 uM alone, read-out: Retinyl Linoleate % Actual Reduction (SD)): -15%
- inhibition at 50 µM (Homo sapiens, Table IX, Retinyl Linoleate 50 uM alone, read-out: Retinyl Linoleate % Actual Reduction (SD)): -7.4%
- inhibition at 100 µM (Homo sapiens, Table IX, Retinyl Linoleate 100 uM alone, read-out: Retinyl Linoleate % Actual Reduction (SD)): 1.9%
- inhibition at 0.1 µM (Homo sapiens, Table VIII, Retinyl Linoleate 100 nM alone, read-out: Retinyl Linoleate % Actual Reduction (SD)): 4.4%
- inhibition at 1 µM (Homo sapiens, Table VIII, Retinyl Linoleate 1 uM alone, read-out: Retinyl Linoleate % Actual Reduction (SD)): 6%
- inhibition at 10 µM (Homo sapiens, Table VIII, Retinyl Linoleate 10 uM alone, read-out: Retinyl Linoleate % Actual Reduction (SD)): 13.8%
- inhibition at 100 µM (Homo sapiens, Table VIII, Retinyl Linoleate 100 uM alone, read-out: Retinyl Linoleate % Actual Reduction (SD)): 20.3%
- activity with tridecyl salicylate (synergistic or additive) [1]: synergistic activity

Compound: CCCCCCCCCCCCCCCC(=O)OC/C=C(C)/C=C/C=C(C)/C=C/C1=C(C)CCCC1(C)C [Retinyl Palmitate, retinyl palmitate, reference compound]
- inhibition at 10 µM (Homo sapiens, Table X, Retinyl Palmitate 10 uM alone, read-out: Retinyl Palmitate % Actual Reduction (SD)): 12.2%
- inhibition at 100 µM (Homo sapiens, Table X, Retinyl Palmitate 100 uM alone, read-out: Retinyl Palmitate % Actual Reduction (SD)): 12%
- activity with tridecyl salicylate (synergistic or additive) [1]: only an additive effect

Compound: CCCCCCCCCCCCCOC(=O)c1ccccc1O [TDS, tridecyl salicylate]
- inhibition at 50 µM (Homo sapiens, Table IX, 50 uM TDS alone, read-out: Reduction): 17.9%
- inhibition at 100 µM (Homo sapiens, Table IX, 100 uM TDS alone, read-out: Reduction): 30.8%
- inhibition at 10 µM (Homo sapiens, Table VIII, 10 uM TDS alone, read-out: Reduction): 19.7%
- inhibition at 100 µM (Homo sapiens, Table X, 100 uM TDS alone, read-out: Reduction): 38.7%
